Experimental data reported in ChEMBL document CHEMBL4507275, “Data for DCP probe BI-2545” (2021).

What was measured:
[1] = molecular target: Serine/threonine-protein kinase Nek4 (Homo sapiens) (UniProt P51957); conditions: Compound concentration 1000.0 nM
[2] = molecular target: Protein-tyrosine kinase 6 (Homo sapiens) (UniProt Q13882); conditions: Compound concentration 1000.0 nM
[3] = molecular target: Serine/threonine-protein kinase TAO1 (Homo sapiens) (UniProt Q7L7X3); conditions: Compound concentration 1000.0 nM
[4] = molecular target: Serine/threonine-protein kinase SIK2 (Homo sapiens) (UniProt Q9H0K1); conditions: Compound concentration 1000.0 nM
[5] = molecular target: Cyclin-dependent kinase 4 (Homo sapiens) (UniProt P11802); conditions: Compound concentration 1000.0 nM
Chain of Cyclin-dependent kinase 4 (Homo sapiens) (P11802 whole entry): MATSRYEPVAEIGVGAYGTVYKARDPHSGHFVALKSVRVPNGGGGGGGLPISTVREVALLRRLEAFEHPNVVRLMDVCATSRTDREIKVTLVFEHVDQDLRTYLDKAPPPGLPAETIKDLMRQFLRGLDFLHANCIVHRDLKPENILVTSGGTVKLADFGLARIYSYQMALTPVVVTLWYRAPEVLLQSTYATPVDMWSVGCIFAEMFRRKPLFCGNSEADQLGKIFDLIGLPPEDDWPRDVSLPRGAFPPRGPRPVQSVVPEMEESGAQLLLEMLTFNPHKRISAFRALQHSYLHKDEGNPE

[6] = molecular target: Calcium/calmodulin-dependent protein kinase kinase 2 (Homo sapiens) (UniProt Q96RR4); conditions: Compound concentration 1000.0 nM
[7] = molecular target: Mitogen-activated protein kinase kinase kinase 13 (Homo sapiens) (UniProt O43283); conditions: Compound concentration 1000.0 nM
[8] = molecular target: Alpha-1D adrenergic receptor (Homo sapiens) (UniProt P25100); conditions: Compound concentration 10.0 uM
[9] = molecular target: Serine/threonine-protein kinase ULK3 (Homo sapiens) (UniProt Q6PHR2); conditions: Compound concentration 1000.0 nM
Chain of Serine/threonine-protein kinase ULK3 (Homo sapiens) (Q6PHR2 whole entry): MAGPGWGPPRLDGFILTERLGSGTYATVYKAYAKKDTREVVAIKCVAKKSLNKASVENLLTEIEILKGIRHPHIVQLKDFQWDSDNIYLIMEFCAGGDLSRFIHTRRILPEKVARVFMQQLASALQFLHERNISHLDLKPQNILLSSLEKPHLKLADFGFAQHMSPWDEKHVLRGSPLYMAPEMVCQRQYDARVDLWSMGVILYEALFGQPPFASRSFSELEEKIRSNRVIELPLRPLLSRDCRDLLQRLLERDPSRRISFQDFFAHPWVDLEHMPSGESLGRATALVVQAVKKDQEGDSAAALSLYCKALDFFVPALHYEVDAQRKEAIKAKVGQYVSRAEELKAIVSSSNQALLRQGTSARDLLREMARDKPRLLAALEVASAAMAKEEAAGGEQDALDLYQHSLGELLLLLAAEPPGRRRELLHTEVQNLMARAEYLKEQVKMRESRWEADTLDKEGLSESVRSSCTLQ

[10] = molecular target: Ephrin type-A receptor 6 (Homo sapiens) (UniProt Q9UF33); conditions: Compound concentration 1000.0 nM
[11] = molecular target: Uncharacterized serine/threonine-protein kinase SBK3 (Homo sapiens) (UniProt P0C264); conditions: Compound concentration 1000.0 nM
Chain of Uncharacterized serine/threonine-protein kinase SBK3 (Homo sapiens) (P0C264 whole entry): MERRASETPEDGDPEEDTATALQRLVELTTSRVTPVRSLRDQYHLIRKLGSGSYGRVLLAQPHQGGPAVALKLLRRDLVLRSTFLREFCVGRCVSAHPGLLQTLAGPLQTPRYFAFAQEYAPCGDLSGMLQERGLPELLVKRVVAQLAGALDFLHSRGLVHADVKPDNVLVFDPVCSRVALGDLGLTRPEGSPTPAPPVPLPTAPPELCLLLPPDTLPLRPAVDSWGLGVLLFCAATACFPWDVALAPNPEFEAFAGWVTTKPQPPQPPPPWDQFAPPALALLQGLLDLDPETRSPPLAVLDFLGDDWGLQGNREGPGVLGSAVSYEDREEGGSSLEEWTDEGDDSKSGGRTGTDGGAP

[12] = molecular target: Tyrosine-protein kinase ABL2 (Homo sapiens) (UniProt P42684); conditions: Compound concentration 1000.0 nM
[13] = molecular target: Ribosomal protein S6 kinase alpha-1 (Homo sapiens) (UniProt Q15418); conditions: Compound concentration 1000.0 nM
[14] = molecular target: D(4) dopamine receptor (Homo sapiens) (UniProt P21917); conditions: Compound concentration 10.0 uM
[15] = molecular target: 5-hydroxytryptamine receptor 1D (Homo sapiens) (UniProt P28221); conditions: Compound concentration 10.0 uM
Chain of 5-hydroxytryptamine receptor 1D (Homo sapiens) (P28221 whole entry): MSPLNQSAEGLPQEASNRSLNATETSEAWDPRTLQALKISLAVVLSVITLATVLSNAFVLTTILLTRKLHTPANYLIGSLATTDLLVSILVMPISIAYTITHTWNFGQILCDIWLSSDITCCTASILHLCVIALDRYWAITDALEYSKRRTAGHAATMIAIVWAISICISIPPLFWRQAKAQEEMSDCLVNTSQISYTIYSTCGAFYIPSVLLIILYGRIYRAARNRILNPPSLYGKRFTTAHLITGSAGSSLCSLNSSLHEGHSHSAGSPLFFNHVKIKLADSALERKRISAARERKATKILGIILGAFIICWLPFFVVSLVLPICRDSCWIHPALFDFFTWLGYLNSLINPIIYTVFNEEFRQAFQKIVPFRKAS

[16] = molecular target: T1, Alpha-1A adrenergic receptor (Homo sapiens) (UniProt P35348); conditions: Compound concentration 10.0 uM
T1 sequence (whole entry): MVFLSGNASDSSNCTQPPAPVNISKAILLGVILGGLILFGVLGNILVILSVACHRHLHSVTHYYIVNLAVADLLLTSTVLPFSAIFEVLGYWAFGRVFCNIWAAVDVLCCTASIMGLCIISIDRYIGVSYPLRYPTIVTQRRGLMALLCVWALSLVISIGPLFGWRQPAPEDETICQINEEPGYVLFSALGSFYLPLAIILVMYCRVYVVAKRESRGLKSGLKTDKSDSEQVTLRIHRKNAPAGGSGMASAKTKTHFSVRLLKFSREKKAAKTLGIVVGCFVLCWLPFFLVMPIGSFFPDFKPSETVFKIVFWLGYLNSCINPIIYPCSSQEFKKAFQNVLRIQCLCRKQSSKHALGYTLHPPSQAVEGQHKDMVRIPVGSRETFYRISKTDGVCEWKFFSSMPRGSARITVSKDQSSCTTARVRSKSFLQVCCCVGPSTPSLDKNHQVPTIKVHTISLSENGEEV

[17] = system: Phosphatidylinositol 4,5-bisphosphate 3-kinase catalytic subunit alpha isoform (Homo sapiens), P42336 [Q546K]; conditions: Compound concentration 1000.0 nM
Chain of Phosphatidylinositol 4,5-bisphosphate 3-kinase catalytic subunit alpha isoform (Homo sapiens), P42336 [Q546K] (P42336 whole entry Q546K, canonical isoform): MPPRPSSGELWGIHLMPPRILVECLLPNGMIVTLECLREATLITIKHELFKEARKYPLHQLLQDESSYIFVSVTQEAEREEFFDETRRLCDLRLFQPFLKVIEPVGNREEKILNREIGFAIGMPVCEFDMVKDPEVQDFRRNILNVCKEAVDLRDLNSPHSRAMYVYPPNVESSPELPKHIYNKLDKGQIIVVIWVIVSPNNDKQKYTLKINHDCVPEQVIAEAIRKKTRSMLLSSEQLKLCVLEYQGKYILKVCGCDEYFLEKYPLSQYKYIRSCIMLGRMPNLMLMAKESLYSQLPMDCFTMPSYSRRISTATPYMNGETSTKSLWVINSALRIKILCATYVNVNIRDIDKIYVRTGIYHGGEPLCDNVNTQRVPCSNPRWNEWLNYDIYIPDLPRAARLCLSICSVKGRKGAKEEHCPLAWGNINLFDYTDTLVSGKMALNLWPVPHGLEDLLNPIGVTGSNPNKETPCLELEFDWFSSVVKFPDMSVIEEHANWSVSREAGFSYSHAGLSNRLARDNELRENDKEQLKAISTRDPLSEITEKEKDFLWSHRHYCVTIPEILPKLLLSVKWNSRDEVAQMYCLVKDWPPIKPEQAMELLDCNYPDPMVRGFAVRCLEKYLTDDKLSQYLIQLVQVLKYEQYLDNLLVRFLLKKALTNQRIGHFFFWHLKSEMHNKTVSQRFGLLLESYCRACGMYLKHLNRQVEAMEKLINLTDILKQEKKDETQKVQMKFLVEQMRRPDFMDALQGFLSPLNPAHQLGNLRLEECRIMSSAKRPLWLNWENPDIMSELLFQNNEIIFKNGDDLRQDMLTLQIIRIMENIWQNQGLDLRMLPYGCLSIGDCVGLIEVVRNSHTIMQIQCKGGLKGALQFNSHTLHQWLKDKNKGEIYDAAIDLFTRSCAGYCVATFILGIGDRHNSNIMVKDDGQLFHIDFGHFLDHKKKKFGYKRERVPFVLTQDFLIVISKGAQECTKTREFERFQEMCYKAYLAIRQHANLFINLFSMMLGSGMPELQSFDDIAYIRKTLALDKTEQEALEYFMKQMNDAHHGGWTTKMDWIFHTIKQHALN

[18] = molecular target: Receptor-type tyrosine-protein kinase FLT3 (Homo sapiens) (UniProt P36888); conditions: Compound concentration 1000.0 nM
Chain of Receptor-type tyrosine-protein kinase FLT3 (Homo sapiens) (P36888 whole entry): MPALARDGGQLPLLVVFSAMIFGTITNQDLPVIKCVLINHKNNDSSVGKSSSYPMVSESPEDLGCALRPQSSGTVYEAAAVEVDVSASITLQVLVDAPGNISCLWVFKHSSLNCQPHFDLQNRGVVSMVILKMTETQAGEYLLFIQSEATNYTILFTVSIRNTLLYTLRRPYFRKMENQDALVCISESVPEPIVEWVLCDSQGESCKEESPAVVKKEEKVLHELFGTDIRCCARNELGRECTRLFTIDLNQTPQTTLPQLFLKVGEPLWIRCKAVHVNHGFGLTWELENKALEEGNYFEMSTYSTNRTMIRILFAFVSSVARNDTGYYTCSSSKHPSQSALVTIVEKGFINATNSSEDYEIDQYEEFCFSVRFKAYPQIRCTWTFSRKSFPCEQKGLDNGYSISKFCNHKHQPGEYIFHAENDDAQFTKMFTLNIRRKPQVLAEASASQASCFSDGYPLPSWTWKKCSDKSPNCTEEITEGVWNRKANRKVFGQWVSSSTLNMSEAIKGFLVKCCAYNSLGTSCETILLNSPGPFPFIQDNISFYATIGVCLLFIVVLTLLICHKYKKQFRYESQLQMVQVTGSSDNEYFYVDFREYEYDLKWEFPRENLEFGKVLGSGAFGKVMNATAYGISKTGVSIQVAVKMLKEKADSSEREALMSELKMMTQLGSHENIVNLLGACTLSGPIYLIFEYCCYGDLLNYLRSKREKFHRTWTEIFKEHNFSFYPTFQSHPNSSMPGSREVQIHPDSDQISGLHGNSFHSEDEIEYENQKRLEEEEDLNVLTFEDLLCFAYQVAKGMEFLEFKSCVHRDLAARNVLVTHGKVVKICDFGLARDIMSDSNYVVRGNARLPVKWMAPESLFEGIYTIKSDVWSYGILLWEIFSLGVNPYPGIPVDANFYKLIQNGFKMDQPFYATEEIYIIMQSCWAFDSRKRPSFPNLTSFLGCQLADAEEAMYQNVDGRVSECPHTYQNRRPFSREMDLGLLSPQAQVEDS

[19] = molecular target: Serine/threonine-protein kinase SBK1 (Homo sapiens) (UniProt Q52WX2); conditions: Compound concentration 1000.0 nM
[20] = molecular target: Serine/threonine-protein kinase Nek11 (Homo sapiens) (UniProt Q8NG66); conditions: Compound concentration 1000.0 nM
[21] = system: Mast/stem cell growth factor receptor Kit (Homo sapiens), P10721 [V559D,V654A]; conditions: Compound concentration 1000.0 nM
[22] = molecular target: Alpha-2C adrenergic receptor (Homo sapiens) (UniProt P18825); conditions: Compound concentration 10.0 uM
[23] = system: Proto-oncogene tyrosine-protein kinase receptor Ret (Homo sapiens), P07949 [M918T]; conditions: Compound concentration 1000.0 nM
[24] = molecular target: Tyrosine-protein kinase SYK (Homo sapiens) (UniProt P43405); conditions: Compound concentration 1000.0 nM
[25] = molecular target: Cyclin-dependent kinase 4 (Homo sapiens) (UniProt P11802); conditions: Compound concentration 1000.0 nM; remark: listed apart in the source
[26] = molecular target: Inhibitor of nuclear factor kappa-B kinase subunit alpha (Homo sapiens) (UniProt O15111); conditions: Compound concentration 1000.0 nM
[27] = molecular target: Serine/threonine-protein kinase Nek1 (Homo sapiens) (UniProt Q96PY6); conditions: Compound concentration 1000.0 nM
[28] = system: eIF-2-alpha kinase GCN2 (Homo sapiens), Q9P2K8 [S808G]; conditions: Compound concentration 1000.0 nM
[29] = molecular target: Serine/threonine-protein kinase TBK1 (Homo sapiens) (UniProt Q9UHD2); conditions: Compound concentration 1000.0 nM
[30] = molecular target: Cyclin-dependent kinase 19 (Homo sapiens) (UniProt Q9BWU1); conditions: Compound concentration 1000.0 nM
[31] = molecular target: Mitogen-activated protein kinase 15 (Homo sapiens) (UniProt Q8TD08); conditions: Compound concentration 1000.0 nM
[32] = molecular target: BDNF/NT-3 growth factors receptor (Homo sapiens) (UniProt Q16620); conditions: Compound concentration 1000.0 nM
Chain of BDNF/NT-3 growth factors receptor (Homo sapiens) (Q16620 32-822 limits assumed): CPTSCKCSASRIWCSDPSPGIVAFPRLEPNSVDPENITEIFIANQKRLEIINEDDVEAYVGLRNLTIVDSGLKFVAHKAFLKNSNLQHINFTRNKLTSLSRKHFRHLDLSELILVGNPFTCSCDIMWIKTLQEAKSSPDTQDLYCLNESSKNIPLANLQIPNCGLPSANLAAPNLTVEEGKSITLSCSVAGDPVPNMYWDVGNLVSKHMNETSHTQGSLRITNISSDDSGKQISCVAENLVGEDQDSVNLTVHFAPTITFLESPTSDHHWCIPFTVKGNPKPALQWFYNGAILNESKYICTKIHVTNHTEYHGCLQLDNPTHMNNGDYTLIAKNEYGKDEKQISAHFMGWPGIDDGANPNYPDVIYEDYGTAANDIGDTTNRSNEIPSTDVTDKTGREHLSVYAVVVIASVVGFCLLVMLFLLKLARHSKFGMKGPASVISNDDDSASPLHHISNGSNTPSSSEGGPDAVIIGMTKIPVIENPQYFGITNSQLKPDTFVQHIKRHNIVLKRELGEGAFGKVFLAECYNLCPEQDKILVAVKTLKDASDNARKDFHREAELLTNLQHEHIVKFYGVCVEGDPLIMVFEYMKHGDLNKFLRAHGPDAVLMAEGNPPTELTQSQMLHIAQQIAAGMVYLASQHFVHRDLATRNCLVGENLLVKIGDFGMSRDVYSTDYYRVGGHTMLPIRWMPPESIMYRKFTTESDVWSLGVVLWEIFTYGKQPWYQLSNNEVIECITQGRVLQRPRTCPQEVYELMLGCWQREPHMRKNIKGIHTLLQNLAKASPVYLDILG

[33] = molecular target: Non-receptor tyrosine-protein kinase TNK1 (Homo sapiens) (UniProt Q13470); conditions: Compound concentration 1000.0 nM
Chain of Non-receptor tyrosine-protein kinase TNK1 (Homo sapiens) (Q13470 whole entry, canonical isoform): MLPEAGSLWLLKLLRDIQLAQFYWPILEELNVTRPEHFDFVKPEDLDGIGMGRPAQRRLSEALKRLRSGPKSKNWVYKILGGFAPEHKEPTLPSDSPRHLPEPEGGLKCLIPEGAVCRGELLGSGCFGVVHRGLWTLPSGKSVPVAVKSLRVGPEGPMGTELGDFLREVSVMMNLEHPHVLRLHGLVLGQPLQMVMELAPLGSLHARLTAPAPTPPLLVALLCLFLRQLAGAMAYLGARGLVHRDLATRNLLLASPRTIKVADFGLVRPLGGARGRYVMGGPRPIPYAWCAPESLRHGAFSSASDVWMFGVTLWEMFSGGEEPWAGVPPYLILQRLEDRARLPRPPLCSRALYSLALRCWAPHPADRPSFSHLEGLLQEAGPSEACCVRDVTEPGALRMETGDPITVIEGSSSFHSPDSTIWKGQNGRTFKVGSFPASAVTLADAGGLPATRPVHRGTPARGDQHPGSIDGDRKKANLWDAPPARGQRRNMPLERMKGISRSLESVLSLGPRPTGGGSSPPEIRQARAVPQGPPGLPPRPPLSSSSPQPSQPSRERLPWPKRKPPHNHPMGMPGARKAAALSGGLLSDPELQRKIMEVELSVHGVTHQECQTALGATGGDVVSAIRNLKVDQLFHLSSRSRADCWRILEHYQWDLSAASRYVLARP

[34] = molecular target: Phosphatidylinositol 4,5-bisphosphate 3-kinase catalytic subunit delta isoform (Homo sapiens) (UniProt O00329); conditions: Compound concentration 1000.0 nM
[35] = molecular target: Myosin-IIIb (Homo sapiens) (UniProt Q8WXR4); conditions: Compound concentration 1000.0 nM
[36] = molecular target: 1-phosphatidylinositol 3-phosphate 5-kinase (Homo sapiens) (UniProt Q9Y2I7); conditions: Compound concentration 1000.0 nM
[37] = molecular target: Tyrosine-protein kinase JAK2 (Homo sapiens) (UniProt O60674); conditions: Compound concentration 1000.0 nM
[38] = molecular target: TRAF2 and NCK-interacting protein kinase (Homo sapiens) (UniProt Q9UKE5); conditions: Compound concentration 1000.0 nM
[39] = molecular target: Beta-adrenergic receptor kinase 1 (Homo sapiens) (UniProt P25098); conditions: Compound concentration 1000.0 nM

Row | Compound | residual activity [1] [%] | residual activity [2] [%] | residual activity [3] [%] | residual activity [4] [%] | residual activity [5] [%] | residual activity [6] [%] | residual activity [7] [%] | inhibition [8] [%] | residual activity [9] [%] | residual activity [10] [%] | residual activity [11] [%] | residual activity [12] [%] | residual activity [13] [%] | inhibition [14] [%] | inhibition [15] [%] | inhibition [16] [%] | residual activity [17] [%] | residual activity [18] [%] | residual activity [19] [%] | residual activity [20] [%] | also measured
1 | O=C(NC[C@@H]1[C@H]2CN(C(=O)OCc3cc(C(F)(F)F)cc(C(F)(F)F)c3)C[C@@H]12)c1ccc2[nH]nnc2c1 [BI 2545] | 84 | 96 | 78 | 100 | 100 | 91 | 86 | -1.41 | 99 | 69 | 100 | 98 | 83 | 6.75 | 43.2 | 4.06 | 78 | 91 | 97 | 100 | residual activity [21]: 99%; inhibition [22]: 19%; residual activity [23]: 100%; residual activity [24]: 100%; residual activity [25]: 95%; residual activity [26]: 100%; residual activity [27]: 44%; residual activity [28]: 84%; residual activity [29]: 100%; residual activity [30]: 89%; residual activity [31]: 100%; residual activity [32]: 99%; residual activity [33]: 94%; residual activity [34]: 75%; residual activity [35]: 100%; residual activity [36]: 100%; residual activity [37]: 100%; residual activity [38]: 98%; residual activity [39]: 71%
2 | Cc1nccc(COC(=O)N2C[C@@H]3[C@@H](CNC(=O)c4ccc5[nH]nnc5c4)[C@@H]3C2)n1 [BI 3017] | 79 | 100 | 85 | 92 | 90 | 100 | 65 | -6.43 | 100 | 98 | 54 | 90 | 96 | -0.15 | 23 | -3.15 | 85 | 93 | 93 | 88 | residual activity [21]: 41%; inhibition [22]: 3.82%; residual activity [23]: 100%; residual activity [24]: 100%; residual activity [25]: 80%; residual activity [26]: 100%; residual activity [27]: 100%; residual activity [28]: 84%; residual activity [29]: 96%; residual activity [30]: 97%; residual activity [31]: 100%; residual activity [32]: 100%; residual activity [33]: 66%; residual activity [34]: 85%; residual activity [35]: 100%; residual activity [36]: 100%; residual activity [37]: 93%; residual activity [38]: 100%; residual activity [39]: 100%
